We go through 17 compounds from patent US9475779B2, “Substituted bicyclic dihydropyrimidinones and their use as inhibitors of neutrophil elastase activity” (priority 2014, dated 2016).

As a reminder, the solubility is how much of the substance goes into solution per volume. Lower therefore signals little dissolved substance. A word on the IC50: it is the concentration needed to halve the response being measured. One may read the EC50 as the concentration that produces a half-maximal response. The low end stands for higher potency in that assay, the high end for lower potency in that assay. In general, inhibition refers to the relative decrease from the control value, in per cent. The low end stands for a weak effect, the high end for a strong effect. Usually Aqueous solubility stands for the concentration that dissolves in the medium under given conditions. Low readings indicate little dissolved substance, high ones much dissolved substance.

Structures are written as SMILES. Values after ≈ are worked out from the molar mass of the structure shown. Where two headings read alike, the source gives them in different places. Bounds are passed on as bounds.

One series in a line: in vitro. It counts as in vitro ADME. The following applies: human, pH 7.2, 37° C.; for Papp A→B at 10 μM: Caco-2, pH 7.2, Caco-2, apical-to-basal, read-out: PEAB; for Papp B→A at 10 μM: Caco-2, pH 7.2, Caco-2, basal-to-apical, read-out: PEBA.
The nature of series [1]: Metabolic stability with human liver microsomes. The class given is in vitro ADME. The conditions noted are these: for half-life at 1 μM: human, pH 7.6, pooled human liver microsomes, read-out: t1/2 INVITRO. (Liver microsomes are a subcellular fraction often used to study metabolism.)
A short description of a further series: physchem. The conditions noted are these: for solubility at 24 h: McIlvaine buffer pH 6.8 containing 2.5% DMSO, pH 6.8, aqueous buffer, kinetic from dmso stock, McIlvaine buffer pH 6.8, 2.5% DMSO. The class given is physicochemical.
The target in series [2] is T1, neutrophil elastase (Homo sapiens (Human), UniProt P08246). The experiment in a line: biochemical. The class given is biochemical.
T1 sequence (P08246 whole entry, looked up): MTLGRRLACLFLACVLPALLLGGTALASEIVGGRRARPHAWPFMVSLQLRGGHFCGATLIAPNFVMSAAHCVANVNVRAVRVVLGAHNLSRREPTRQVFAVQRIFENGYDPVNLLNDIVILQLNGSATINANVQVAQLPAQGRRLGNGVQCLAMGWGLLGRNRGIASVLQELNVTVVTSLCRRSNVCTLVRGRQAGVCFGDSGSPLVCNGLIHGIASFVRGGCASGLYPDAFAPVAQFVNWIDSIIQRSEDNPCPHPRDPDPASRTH
Protocol: Human Neutrophil Elastase Assay
All other materials were of the highest grade commercially available.
The following buffers were used: Compound buffer: 100 mM Tris, 500 mM NaCl, adjusted to pH 7.5; Assay buffer: 100 mM Tris, 500 mM NaCl, adjusted to pH 7.5, containing 0.01% BSA.
Assay conditions: Test compounds were prediluted in DMSO and subsequently in compound buffer (5% DMSO final). […] After inactivation of the enzyme, fluorescence intensities were measured at 380 nm excitation and 460 nm emission wavelengths.
Each plate contains wells with a high value control (DMSO+enzyme+substrate) and wells with a low value control (DMSO+inactivated enzyme+substrate). IC50 values were estimated using a sigmoidal concentration response curve with variable slope. Means of low values were taken as 0%, means of high values as 100%.
The target in a further series is cytochrome P450 2C19 (Homo sapiens (Human), UniProt P33261). The experiment in a line: biochemical.
Sequence of cytochrome P450 2C19 (P33261 whole entry, looked up): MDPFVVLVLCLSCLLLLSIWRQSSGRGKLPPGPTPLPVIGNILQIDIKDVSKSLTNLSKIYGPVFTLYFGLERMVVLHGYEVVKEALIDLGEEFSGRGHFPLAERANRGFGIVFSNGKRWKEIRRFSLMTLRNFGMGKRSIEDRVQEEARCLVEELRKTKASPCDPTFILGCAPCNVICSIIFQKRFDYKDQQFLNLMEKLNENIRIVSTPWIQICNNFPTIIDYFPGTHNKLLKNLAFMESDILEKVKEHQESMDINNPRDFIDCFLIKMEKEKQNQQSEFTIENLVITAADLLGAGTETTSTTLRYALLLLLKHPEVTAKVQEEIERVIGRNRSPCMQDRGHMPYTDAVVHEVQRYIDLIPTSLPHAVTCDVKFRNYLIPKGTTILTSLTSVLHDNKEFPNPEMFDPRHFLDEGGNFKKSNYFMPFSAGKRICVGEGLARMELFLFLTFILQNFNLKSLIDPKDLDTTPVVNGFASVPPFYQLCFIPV
The target of another series is cytochrome P450 2C9 (Homo sapiens (Human), UniProt P11712). The experiment in a line: biochemical.
Sequence of cytochrome P450 2C9 (P11712 whole entry, looked up): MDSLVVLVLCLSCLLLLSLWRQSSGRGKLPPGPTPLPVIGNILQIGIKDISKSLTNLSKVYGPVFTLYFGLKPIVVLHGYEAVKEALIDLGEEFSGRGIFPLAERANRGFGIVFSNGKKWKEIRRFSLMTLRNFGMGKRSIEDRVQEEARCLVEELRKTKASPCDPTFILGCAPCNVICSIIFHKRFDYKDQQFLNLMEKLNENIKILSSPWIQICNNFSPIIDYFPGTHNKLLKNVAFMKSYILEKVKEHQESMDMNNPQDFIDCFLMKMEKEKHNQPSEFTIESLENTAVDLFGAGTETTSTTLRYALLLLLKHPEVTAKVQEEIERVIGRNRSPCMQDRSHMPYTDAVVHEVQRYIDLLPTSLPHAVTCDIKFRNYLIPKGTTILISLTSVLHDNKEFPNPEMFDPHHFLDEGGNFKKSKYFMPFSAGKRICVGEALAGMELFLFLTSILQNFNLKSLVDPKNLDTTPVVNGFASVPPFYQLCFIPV
Series [3] has as its target T1, neutrophil elastase. The experiment in a line: biochemical.
A further series has as its target hERG potassium channel (Homo sapiens (Human), UniProt Q12809). The experiment in a line: in vitro.
Another series concerns the target cytochrome P450 2C8 (Homo sapiens (Human), UniProt P10632). The experiment in a line: biochemical.
The subject of another series is Caco-2 cells. The experiment in a line: in vitro. It counts as in vitro ADME. The following applies: pH 7.2.
Where [4] appears, read: pooled human liver microsomes, 1 μM test compound, 37° C.
Setting [5] is: Neutrophil Elastase assay, substrate MeOSuc-Ala-Ala-Pro-Val-AMC, read-out: IC50.

Sequence of cytochrome P450 2C8 (P10632 whole entry, looked up): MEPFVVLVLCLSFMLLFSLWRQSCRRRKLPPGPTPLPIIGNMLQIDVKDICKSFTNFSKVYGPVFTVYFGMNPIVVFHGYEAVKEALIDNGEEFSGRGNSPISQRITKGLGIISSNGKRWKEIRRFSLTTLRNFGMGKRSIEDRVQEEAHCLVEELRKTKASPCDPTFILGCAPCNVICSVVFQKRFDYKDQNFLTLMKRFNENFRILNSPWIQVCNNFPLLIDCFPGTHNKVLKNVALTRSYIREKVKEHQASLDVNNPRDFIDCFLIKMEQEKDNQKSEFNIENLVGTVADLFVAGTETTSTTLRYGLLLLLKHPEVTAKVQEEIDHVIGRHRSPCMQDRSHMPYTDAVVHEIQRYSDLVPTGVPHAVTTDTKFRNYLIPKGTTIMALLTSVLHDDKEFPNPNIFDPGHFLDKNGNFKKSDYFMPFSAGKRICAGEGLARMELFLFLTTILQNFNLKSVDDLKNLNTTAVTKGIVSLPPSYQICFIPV

As for `CN1C(=O)N(c2cccc(C(F)(F)F)c2)C2=C(C(=O)CC2)C1c1ccc(C#N)cc1S(=O)(=O)CCCO` (single isomer, unassigned) [Example B.1.3A], in “in vitro”, the Papp A→B at 10 μM came to 9.9 ×10⁻⁶ cm/s and the Papp B→A at 10 μM was 130 ×10⁻⁶ cm/s. The half-life at 1 μM in series [1] (setting [4]) is 1.52 h. The compound also showed a solubility at 24 h in “physchem” of 93 µg/mL (≈ 174 µM).
As for `CN1C(=O)N(c2cccc(C(F)(F)F)c2)C2=C(C(=O)CC2)[C@H]1c1ccc(C#N)cc1S(=O)(=O)CCO` [Example B.1.2B], the IC50 on neutrophil elastase [2] (IC50) was below 1 nM; on cytochrome P450 2C19, above 50000 nM; at cytochrome P450 2C9 it was above 50000 nM; against cytochrome P450 2C8, above 50000 nM. For the same compound, the Papp A→B at 10 μM in the series “in vitro” turned out to be 12 ×10⁻⁶ cm/s. The Papp B→A at 10 μM in “in vitro” is 120 ×10⁻⁶ cm/s. The same compound yielded an EC50 on neutrophil elastase [3] of 1 nM. For the same compound, in [1] (setting [4]), the half-life at 1 μM is above 2.17 h. This compound came in with an inhibition at 10 µM against hERG potassium channel of 12%. The same compound returned a solubility at 24 h in “physchem” of 73 µg/mL (≈ 141 µM).
For `CC(O)c1cc(C#N)ccc1C1C2=C(CCC2=O)N(c2cccc(C(F)(F)F)c2)C(=O)N1C` (stereo not drawn) [Example A.3, 3-(1-Hydroxy-ethyl)-4-[3-methyl-2,5-dioxo-1-(3-trifluoromethyl-phenyl)-2,3,4,5,6,7-hexahydro-1H-cyclopentapyrimidin-4-yl]-benzonitrile], in the series “in vitro”, the Papp A→B at 10 μM was 67 ×10⁻⁶ cm/s and the Papp B→A at 10 μM came to 87 ×10⁻⁶ cm/s. In addition, the half-life at 1 μM in series [1] (setting [4]) was above 2.17 h. In the series “physchem”, this compound came in with a solubility at 24 h of 65 µg/mL (≈ 143 µM).
Take `CCNC(=O)N1C(=O)N(c2cc(C(F)(F)F)ccn2)C2=C(C(=O)CC2)C1c1ccc(C#N)cc1S(C)(=O)=O` (stereo not drawn) [D.4.5]: the IC50 on neutrophil elastase [2] (read-out: IC50) was below 1 nM. In “in vitro”, the Papp A→B at 10 μM amounted to 7.3 ×10⁻⁶ cm/s and the Papp B→A at 10 μM turned out to be 67 ×10⁻⁶ cm/s. Further, at neutrophil elastase [3], the EC50 stood at 1 nM. In addition, the half-life at 1 μM in series [1] (setting [4]) was above 2.17 h. In “physchem”, the solubility at 24 h was 78 µg/mL (≈ 142 µM).
For the compound `CC[S+]([O-])c1cc(C#N)ccc1C1C2=C(CCC2=O)N(c2cccc(C(F)(F)F)c2)C(=O)N1C` (single isomer, unassigned) [Example C.5.2, 3-Ethanesulfinyl-4-[3-methyl-2,5-dioxo-1-(3-trifluoromethyl-phenyl)-2,3,4,5,6,7-hexahydro-1H-cyclopentapyrimidin-4-yl]-benzonitrile], in the series with Caco-2 cells, the PEAB came out at 16 ×10⁻⁶ cm/s and the PEBA was 82 ×10⁻⁶ cm/s. Also, in [1], the “t1/2 INVITRO” value was above 2.17 h. Also, the Aqueous solubility in “physchem” amounted to 69 µg/mL.
On to `CN1C(=O)N(c2cccc(C(F)(F)F)c2)C2=C(C(=O)CC2)C1c1ccc(C#N)cc1C(C)(C)O` (stereo not drawn) [Example A.2, 3-(1-Hydroxy-1-methyl-ethyl)-4-[3-methyl-2,5-dioxo-1-(3-trifluoromethyl-phenyl)-2,3,4,5,6,7-hexahydro-1H-cyclopentapyrimidin-4-yl]-benzonitrile], for which the half-maximal inhibitory concentration (IC50) on neutrophil elastase [2] (read-out: IC50) was below 1 nM. For the same compound, in “in vitro”, the Papp A→B at 10 μM was 92 ×10⁻⁶ cm/s and the Papp B→A at 10 μM came out at 80 ×10⁻⁶ cm/s. The compound further showed an EC50 on neutrophil elastase [3] of 1 nM. For the same compound, the half-life at 1 μM in series [1] (setting [4]) was above 2.17 h.
Consider `CN1C(=O)N(c2cccc(C(F)(F)F)c2)C2=C(C(=O)CC2)C1c1ccc(C#N)cc1CO` (single isomer, unassigned) [Example A.1A, 3-Hydroxymethyl-4-[3-methyl-2,5-dioxo-1-(3-trifluoromethyl-phenyl)-2,3,4,5,6,7-hexahydro-1H-cyclopentapyrimidin-4-yl]-benzonitrile], for which the 50% inhibitory concentration (IC50) on neutrophil elastase [2] (IC50) was below 1 nM; against cytochrome P450 2C19 it was above 50000 nM; at cytochrome P450 2C9, above 50000 nM; against cytochrome P450 2C8 it was above 50000 nM. For the same compound, the Papp A→B at 10 μM in “in vitro” was 53 ×10⁻⁶ cm/s. In addition, the Papp B→A at 10 μM in the series “in vitro” worked out at 98 ×10⁻⁶ cm/s. Besides, the EC50 on neutrophil elastase [3] was 2 nM. This compound also showed an inhibition at 10 µM against hERG potassium channel of 7%. This compound yielded a solubility at 24 h in “physchem” of 58 µg/mL (≈ 131 µM).
For `CCNC(=O)N1C(=O)N(c2ccnc(C(F)(F)F)c2)C2=C(C(=O)CC2)C1c1ccc(C#N)cc1S(=O)(=O)CC` (single isomer, unassigned) [Example D.4.1A, 4-(4-cyano-2-ethanesulfonyl-phenyl)-2,5-dioxo-1-(2-trifluoromethyl-pyridin-4-yl)-1,2,4,5,6,7-hexahydro-cyclopentapyrimidine-3-carboxylic acid ethylamide], the IC50 against neutrophil elastase [2] (IC50) was below 1 nM. In addition, in “in vitro”, the Papp A→B at 10 μM amounted to 3.6 ×10⁻⁶ cm/s and the Papp B→A at 10 μM worked out at 61 ×10⁻⁶ cm/s. Further, the EC50 at neutrophil elastase [3] is below 1 nM. Also, in [1] (setting [4]), the half-life at 1 μM is above 2.17 h. Further, the concentration in solution in the series “physchem” (solubility at 24 h) was 81 µg/mL (≈ 144 µM).
`CC[S+]([O-])c1cc(C#N)ccc1C1C2=C(CCC2=O)N(c2cccc(C(F)(F)F)c2)C(=O)N1C` (single isomer, unassigned) [Example C.5.1, 3-Ethanesulfinyl-4-[3-methyl-2,5-dioxo-1-(3-trifluoromethyl-phenyl)-2,3,4,5,6,7-hexahydro-1H-cyclopentapyrimidin-4-yl]-benzonitrile] had a PEAB with Caco-2 cells of 7.1 ×10⁻⁶ cm/s. Moreover, the Papp B→A at 10 μM in the series “in vitro” was determined as 57 ×10⁻⁶ cm/s. Moreover, the half-life at 1 μM in series [1] (setting [4]) came to 1.83 h. In addition, the solubility at 24 h in “physchem” was found to be 86 µg/mL (≈ 176 µM).
In the case of `CCS(=O)(=O)c1cc(C#N)ccc1C1C2=C(CCC2=O)N(c2ccnc(C(F)(F)F)c2)C(=O)N1C` (single isomer, unassigned) [Example D.3B, 3-Ethanesulfonyl-4-[3-methyl-2,5-dioxo-1-(2-trifluoromethyl-pyridin-4-yl)-2,3,4,5,6,7-hexahydro-1H-cyclopentapyrimidin-4-yl]-benzonitrile], on neutrophil elastase [2] (read-out: IC50), the IC50 was 1.4 nM. Also, in “in vitro”, the Papp A→B at 10 μM was found to be 21 ×10⁻⁶ cm/s and the Papp B→A at 10 μM was found to be 85 ×10⁻⁶ cm/s. Moreover, the midpoint of the response at neutrophil elastase [3], the EC50, lay at 1 nM. Also, the half-life at 1 μM in series [1] (setting [4]) amounted to 2 h.
On to `CN1C(=O)N(c2ccnc(C(F)(F)F)c2)C2=C(C(=O)CC2)C1c1ccc(C#N)cc1S(C)(=O)=O` (single isomer, unassigned) [Example D.1A, 3-Methanesulfonyl-4-[3-methyl-2,5-dioxo-1-(2-trifluoromethyl-pyridin-4-yl)-2,3,4,5,6,7-hexahydro-1H-cyclopentapyrimidin-4-yl]-benzonitrile], for which, in “in vitro”, the Papp A→B at 10 μM was 19 ×10⁻⁶ cm/s and the Papp B→A at 10 μM turned out to be 81 ×10⁻⁶ cm/s. Moreover, the half-life at 1 μM in [1] (setting [4]) is above 2.17 h. The compound further registered an inhibition at 10 µM against hERG potassium channel of 8%.
As for `CN1C(=O)N(c2cccc(C(F)(F)F)c2)C2=C(C(=O)CC2)[C@H]1c1ccc(C#N)cc1[S+](C)[O-]` (single isomer, unassigned) [Example C.1B, 3-Methanesulfinyl-4-[3-methyl-2,5-dioxo-1-(3-trifluoromethyl-phenyl)-2,3,4,5,6,7-hexahydro-1H-cyclopentapyrimidin-4-yl]-benzonitrile], the IC50 at neutrophil elastase [2] (read-out: IC50) was below 1 nM. The same compound came in with a PEAB in the series with Caco-2 cells of 3.7 ×10⁻⁶ cm/s. In addition, the Papp B→A at 10 μM in the series “in vitro” worked out at 41 ×10⁻⁶ cm/s. Besides, it took 1 nM to reach a half-maximal effect at neutrophil elastase [3] (EC50). In series [1] (setting [4]), the “t1/2 INVITRO” value came out at 1.55 h. The compound further registered an Aqueous solubility in “physchem” of 61 µg/mL.
As for `CNC(=O)N1C(=O)N(c2cc(C(F)(F)F)ccn2)C2=C(C(=O)CC2)C1c1ccc(C#N)cc1S(C)(=O)=O` (stereo not drawn) [D.4.4], on neutrophil elastase [2] (read-out: IC50), the IC50 is below 1 nM. Moreover, in “in vitro”, the Papp A→B at 10 μM turned out to be 3.1 ×10⁻⁶ cm/s and the Papp B→A at 10 μM turned out to be 60 ×10⁻⁶ cm/s. The same compound gave an EC50 on neutrophil elastase [3] of 2 nM. The half-life at 1 μM in [1] (setting [4]) was above 2.17 h.
Compound `CCS(=O)(=O)c1cc(C#N)ccc1C1NC(=O)N(c2cccc(C(F)F)c2)C2=C1C(=O)CC2` (single isomer, unassigned) [Example D.5A, 4-[1-(3-Difluoromethyl-phenyl)-2,5-dioxo-2,3,4,5,6,7-hexahydro-1H-cyclopentapyrimidin-4-yl]-3-ethanesulfonyl-benzonitrile] returned an IC50 against neutrophil elastase [2] (IC50) of 2.2 nM. In “in vitro”, the Papp A→B at 10 μM came out at 7.5 ×10⁻⁶ cm/s and the Papp B→A at 10 μM came out at 78 ×10⁻⁶ cm/s. In addition, on neutrophil elastase [3], the EC50 was 1 nM. Also, the half-life at 1 μM in series [1] (setting [4]) is above 2.17 h. Besides, in the series “physchem”, the solubility at 24 h came to 67 µg/mL (≈ 142 µM).
With `CN1C(=O)N(c2cccc(C(F)(F)F)c2)C2=C(C(=O)CC2)C1c1ccc(C#N)cc1[S+](C)[O-]` (single isomer, unassigned) [Example C.1A, 3-Methanesulfinyl-4-[3-methyl-2,5-dioxo-1-(3-trifluoromethyl-phenyl)-2,3,4,5,6,7-hexahydro-1H-cyclopentapyrimidin-4-yl]-benzonitrile], on neutrophil elastase [2] (setting [5]), the concentration for half-maximal inhibition (IC50) is 1820 nM.
Turning to `CNC(=O)N1C(=O)N(c2cncc(Cl)c2)C2=C(C(=O)CC2)C1c1ccc(C#N)cc1S(C)(=O)=O` (stereo not drawn) [D.4.8], on neutrophil elastase [2] (read-out: IC50), the IC50 was below 1 nM.
For the compound `CCNC(=O)N1C(=O)N(c2cccc(C(F)(F)F)c2)C2=C(C(=O)CC2)C1c1ccc(C#N)cc1[S+](C)[O-]` (stereo not drawn) [Example C.3, 4-(4-Cyano-2-methanesulfinyl-phenyl)-2,5-dioxo-1-(3-trifluoromethyl-phenyl)-1,2,4,5,6,7-hexahydro-cyclopentapyrimidine-3-carboxylic acid ethylamide], the IC50 on neutrophil elastase [2] (setting [5]) is below 1 nM.
